Results as given in patent US20230405005A1, “TREATMENT OF GAIT DYSFUNCTION IN NEURODEGENERATIVE DISEASE” (EIP Pharma, Inc., priority 2020, published 2023).

Key:
CKIε = CKIε (Homo sapiens, UniProt P49674); settings: cited from earlier work
hippocampal neurons = settings: hippocampal cell culture; cited from earlier work
CKIδ = CKIδ (Homo sapiens, UniProt P48730); settings: cited from earlier work
human subjects [1] = assay: Personal Care Domain of Clinical Dementia Rating Scale Sum of Boxes (CDR-SB); assay type: in vivo; settings: neflamapimod vs placebo over 16 weeks; p=0.02 (MMRM), FIG. 4
Procedure: (§1) A double-blind placebo-controlled, 16-week, treatment with neflamapimod was conducted in parallel groups at 22 centers in the US and 2 centers in the Netherlands.
(§2) Inclusion criteria included Mild-to-moderate (MMSE 15-28) probable Dementia with Lewy Bodies by consensus criteria (McKeith et al, Neurology, 2017; 89:88-100), a positive reading of DaTscan™, and have to have been currently receiving cholinesterase inhibitor therapy (>3 months and stable dose >6 weeks). If DaTscan™ was negative, subjects could also be enrolled with history of polysomnography-confirmed REM sleep disorder (6 study participants so enrolled). The study was randomized 1:1 to 40 mg neflamapimod or matching-placebo capsules. Dosing regimen was based on weight: subjects weighing <80 kg received capsules twice-daily (BID) and those weighing ≥80 kg received capsules three-times-a-day (TID).
Secondary clinical endpoints included the following. (a) International Shopping List Test (ISLT); (b) Timed Up and Go Test (TUG), Ten item Neuropsychiatric Inventory (NPI-10); and (c) Clinical Dementia Rating scale Sum-of-Boxes (CDR-SB). The TUG test is useful to measure risk of fall in patients with or at risk of suffering from Parkinson's disease (see e.g., Arch Phys Med Rehabil. 2013 July; 94(7): 1300-1305).

human subjects [2] = assay: EEG beta functional connectivity, corrected Amplitude Envelope Correlation (AECc); assay type: in vivo
Procedure: “40 mg” refers to combined neflamapimod patients, including 40 mg BID and 40 mg TID.
These regions, in particular the frontal cortex, receive cholinergic input, including projections from the nucleus basalis of Meynert. Dysfunction of the cholinergic system leads to impaired cortical functional connectivity, which is disruptive to the performance of complex motor functions such as gait. The ability of neflamapimod to improve functional connectivity, as measured by EEG in the experiments described herein, provides further support for the efficacy of neflamapimod to alleviate gait dysfunction.
Functional connectivity analysis, specifically corrected Amplitude Envelope Correlation (AECc), measures interregional communication or so-called ‘functional connectivity’ between different brain regions. In the functional connectivity analysis, a positive neflamapimod treatment effect on AECc in the beta band (13-30 Hz) was identified. Mean AECc beta was increased with neflamapimod TID versus all placebo (p=0.033) and versus placebo TID (p=0.01).

human subjects [3] = assay: Timed Up and Go (TUG) test, 16-week placebo-controlled clinical study; assay type: in vivo; settings: 8 and 16 weeks
Procedure: FIG. 1A illustrates the Timed Up and Go (TUG) test, wherein the time it takes a subject to stand up from a chair, walk three meters, turn around and return to the chair is measured.
as §1, §2
Secondary clinical endpoints included the following. (a) International Shopping List Test (ISLT); (b) Timed Up and Go Test (TUG), Ten item Neuropsychiatric Inventory (NPI-10); and (c) Clinical Dementia Rating scale Sum-of-Boxes (CDR-SB). […]

Chain of CKIδ (P48730 whole entry, species assumed, the tested form may be a part): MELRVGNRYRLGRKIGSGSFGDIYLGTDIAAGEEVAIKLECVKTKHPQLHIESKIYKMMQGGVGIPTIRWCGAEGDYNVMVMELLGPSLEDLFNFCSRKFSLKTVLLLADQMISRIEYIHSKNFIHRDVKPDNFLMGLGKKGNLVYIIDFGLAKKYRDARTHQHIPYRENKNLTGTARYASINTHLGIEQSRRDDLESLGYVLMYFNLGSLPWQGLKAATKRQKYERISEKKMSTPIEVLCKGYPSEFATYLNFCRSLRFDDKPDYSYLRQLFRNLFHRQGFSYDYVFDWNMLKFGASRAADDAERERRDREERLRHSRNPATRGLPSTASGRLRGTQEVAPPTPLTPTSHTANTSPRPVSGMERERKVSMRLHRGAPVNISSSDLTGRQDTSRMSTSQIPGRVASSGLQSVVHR
Chain of CKIε (P49674 whole entry, species assumed): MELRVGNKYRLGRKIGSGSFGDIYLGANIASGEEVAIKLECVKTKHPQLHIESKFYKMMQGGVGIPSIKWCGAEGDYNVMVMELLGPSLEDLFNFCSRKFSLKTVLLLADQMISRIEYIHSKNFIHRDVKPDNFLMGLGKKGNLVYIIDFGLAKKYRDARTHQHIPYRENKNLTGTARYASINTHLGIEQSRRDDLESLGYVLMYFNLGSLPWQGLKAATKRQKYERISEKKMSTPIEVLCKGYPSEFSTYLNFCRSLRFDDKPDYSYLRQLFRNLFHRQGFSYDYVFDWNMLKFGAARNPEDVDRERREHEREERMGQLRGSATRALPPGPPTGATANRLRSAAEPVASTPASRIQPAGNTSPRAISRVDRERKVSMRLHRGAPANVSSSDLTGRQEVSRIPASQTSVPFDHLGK

SMILES | Inhibition of casein kinase isoform CKIε (CKIε) | Effect against amyloid β-derived diffusible ligand (ADDL) induced synaptotoxicity (hippocampal neurons) | Inhibition of casein kinase isoform CKIδ (CKIδ) | Personal care domain of the CDR sum of boxes (human subjects [1]) | AECc in each of the other bands (human subjects [2]; EEG bands other than beta) | Mean AECc beta (13-30 Hz) functional connectivity (human subjects [2]; neflamapimod TID versus all placebo (p=0.033) and versus placebo TID (p=0.01)) | AECc beta by brain region (human subjects [2]; placebo TID versus neflamapimod TID, frontal p=0.009, temporal p=0.036, parietal p=0.036) | TUG test outcome (human subjects [3]; all neflamapimod (40 mg BID and 40 mg TID) vs all placebo, p=0.044 (MMRM), FIG. 2) | TUG test outcome (human subjects [3]; neflamapimod 40 mg TID vs placebo TID, p=0.024 (MMRM), FIG. 3)
COc1nccc(-c2c(-c3ccc(F)cc3)ncn2C2CCC(O)CC2)n1 (stereo not shown) [SB239063] | inhibit | ineffective | inhibit |  |  |  |  |  | 
O=c1ncn2nc(Sc3ccc(F)cc3F)ccc2c1-c1c(Cl)cccc1Cl [neflamapimod, 5-(2,6-dichlorophenyl)-2-(2,4-difluorophenylthio)-6H-pyrimido[1,6-b]pyridazin-6-one] |  | positive effects |  | significant positive outcome | stable or slightly improved with no treatment group differences | increased | most prominent in the frontal region | significantly improve outcome | significantly improve outcome
